Laboratory results from US20260216108A1, “PHARMACEUTICAL COMPOSITION CONTAINING A MITOPHAGY INDUCER” (HANGZHOU PHECDAMED CO., LTD., priority 2023, published 2026).

Assays:
[1] = Compatibility test of API and auxiliary materials: content by HPLC; assay type: physicochemical; details: for Content: in % (unit assumed)
Description: (§1) 4. Using HPLC method to detect the content of the sample and relevant substances.
(§2) The parameters of the HPLC method for the detection of the content and relevant substances are detailed in Table 2 below.
(§3) Placing the samples under experimental conditions of high temperature (60° C.), high humidity (92.5% RH), acceleration (40° C./75% RH) and illumination (visible light 5500 Lux±500 Lux, near ultraviolet light 85 μw/cm2), […] Submitting the samples for relevant indicator testing (test items include appearance, hygroscopic weight gain, content and relevant substances), and comparing the test results with the control samples (raw material).

[2] = Compatibility test of API and auxiliary materials: relevant substances (impurities) by HPLC; assay type: physicochemical; details: for Change of relevant substance (in words): 30 days
Description: as §1, §2, §3

## O=C(O)C[S+]([O-])c1cc(NS(=O)(=O)c2ccc(Br)cc2)c2ccccc2c1O (stereo not shown) [API]
[1]; 40° C./75% RH (opened), 10 d
  Content: 98.9
[1]; 40° C./75% RH (opened), 30 d
  Content: 97.3
[1]; 60° C. (opened), 10 d
  Content: 100.1
[1]; 60° C. (opened), 30 d
  Content: 101.4
[1]; 60° C., 92.5% RH, 40° C./75% RH opened, 10 days illumination
  Change of content: did not change significantly
[1]; 92.5% RH (opened), 10 d
  Content: 97.8
[1]; 92.5% RH (opened), 30 d
  Content: 99.9
[1]; Illumination (opened), 10 d
  Content: 100.8
[1]; Initial
  Content: 99.7
[2]; 40° C./75% RH, opened, 0 d
  % Impurities RRT0.37: <0.05%
  % Impurities RRT0.46: <0.05%
  % Impurities RRT0.89: 0.08%
  % Impurities RRT1.10: <0.05%
  % Impurities RRT1.16: 0.88%
  % Impurities RRT1.20: 0.09%
  % Impurities RRT1.24: <0.05%
  % Impurities RRT1.29: 0.14%
  % Impurities RRT1.33: 0.10%
  % Impurities RRT1.37: 0.07%
  % Impurities RRT1.41: <0.05%
  % Impurities RRT1.43: <0.05%
  % Impurities RRT1.73: <0.05%
  % Impurities RRT1.74: 0.05%
  % Impurities Total: 1.41%
[2]; 40° C./75% RH, opened, 10 d
  % Impurities RRT0.37: <0.05%
  % Impurities RRT0.46: 0.11%
  % Impurities RRT0.89: 0.06%
  % Impurities RRT1.10: <0.05%
  % Impurities RRT1.16: 1.23%
  % Impurities RRT1.20: 0.06%
  % Impurities RRT1.24: <0.05%
  % Impurities RRT1.29: 0.08%
  % Impurities RRT1.33: 0.07%
  % Impurities RRT1.37: 0.05%
  % Impurities RRT1.41: 0.09%
  % Impurities RRT1.43: 0.07%
  % Impurities RRT1.54: 0.06%
  % Impurities RRT1.63: 0.21%
  % Impurities RRT1.65/1.70: <0.05%
  % Impurities RRT1.73: 0.59%
  % Impurities RRT1.74: 0.06%
  % Impurities Total: 2.74%
[2]; 40° C./75% RH, opened, 30 d
  % Impurities RRT0.46: 0.20%
  % Impurities RRT0.89: 0.08%
  % Impurities RRT1.10: <0.05%
  % Impurities RRT1.16: 1.18%
  % Impurities RRT1.20: 0.05%
  % Impurities RRT1.24: <0.05%
  % Impurities RRT1.29: 0.14%
  % Impurities RRT1.33: 0.07%
  % Impurities RRT1.37: 0.08%
  % Impurities RRT1.41: 0.08%
  % Impurities RRT1.43: 0.07%
  % Impurities RRT1.54: <0.05%
  % Impurities RRT1.63: 0.24%
  % Impurities RRT1.65/1.70: <0.05%
  % Impurities RRT1.73: 0.74%
  % Impurities RRT1.74: 0.08%
  % Impurities Total: 3.01%
[2]; 60° C., opened, 0 d
  % Impurities RRT0.46: <0.05%
  % Impurities RRT0.89: 0.08%
  % Impurities RRT1.16: 0.88%
  % Impurities RRT1.20: 0.09%
  % Impurities RRT1.29: 0.14%
  % Impurities RRT1.33: 0.10%
  % Impurities RRT1.37: 0.07%
  % Impurities RRT1.41: <0.05%
  % Impurities RRT1.73: <0.05%
  % Impurities RRT1.74: 0.05%
  % Impurities Total: 1.41%
[2]; 60° C., opened, 10 d
  % Impurities RRT0.46: <0.05%
  % Impurities RRT0.89: 0.08%
  % Impurities RRT1.16: 0.87%
  % Impurities RRT1.20: 0.07%
  % Impurities RRT1.29: 0.17%
  % Impurities RRT1.33: 0.08%
  % Impurities RRT1.37: 0.06%
  % Impurities RRT1.41: <0.05%
  % Impurities RRT1.73: <0.05%
  % Impurities RRT1.74: 0.07%
  % Impurities Total: 1.40%
[2]; 60° C., opened, 30 d
  % Impurities RRT0.46: <0.05%
  % Impurities RRT0.89: 0.07%
  % Impurities RRT1.16: 0.87%
  % Impurities RRT1.20: 0.06%
  % Impurities RRT1.29: 0.18%
  % Impurities RRT1.33: 0.07%
  % Impurities RRT1.37: 0.06%
  % Impurities RRT1.41: <0.05%
  % Impurities RRT1.73: <0.05%
  % Impurities RRT1.74: 0.09%
  % Impurities Total: 1.40%
[2]; 92.5% RH, opened, 0 d
  % Impurities RRT0.46: <0.05%
  % Impurities RRT0.89: 0.08%
  % Impurities RRT1.10: <0.05%
  % Impurities RRT1.16: 0.88%
  % Impurities RRT1.20: 0.09%
  % Impurities RRT1.24: <0.05%
  % Impurities RRT1.29: 0.14%
  % Impurities RRT1.33: 0.10%
  % Impurities RRT1.37: 0.07%
  % Impurities RRT1.41: <0.05%
  % Impurities RRT1.43: <0.05%
  % Impurities RRT1.73: <0.05%
  % Impurities RRT1.74: 0.05%
  % Impurities Total: 1.41%
[2]; 92.5% RH, opened, 10 d
  % Impurities RRT0.37: <0.05%
  % Impurities RRT0.46: 0.10%
  % Impurities RRT0.89: 0.14%
  % Impurities RRT1.10: <0.05%
  % Impurities RRT1.16: 1.63%
  % Impurities RRT1.20: 0.07%
  % Impurities RRT1.21: <0.05%
  % Impurities RRT1.24: <0.05%
  % Impurities RRT1.29: 0.12%
  % Impurities RRT1.33: 0.08%
  % Impurities RRT1.37: 0.07%
  % Impurities RRT1.41: 0.10%
  % Impurities RRT1.43: <0.05%
  % Impurities RRT1.54: 0.06%
  % Impurities RRT1.64: 0.13%
  % Impurities RRT1.70: <0.05%
  % Impurities RRT1.73: 0.41%
  % Impurities RRT1.74: 0.08%
  % Impurities Total: 2.99%
[2]; 92.5% RH, opened, 30 d
  % Impurities RRT0.37: <0.05%
  % Impurities RRT0.46: 0.17%
  % Impurities RRT0.89: 0.12%
  % Impurities RRT1.10: <0.05%
  % Impurities RRT1.16: 1.65%
  % Impurities RRT1.20: 0.06%
  % Impurities RRT1.24: 0.05%
  % Impurities RRT1.29: 0.07%
  % Impurities RRT1.33: 0.08%
  % Impurities RRT1.37: 0.08%
  % Impurities RRT1.41: 0.09%
  % Impurities RRT1.43: 0.05%
  % Impurities RRT1.54: <0.05%
  % Impurities RRT1.64: 0.21%
  % Impurities RRT1.70: 0.05%
  % Impurities RRT1.73: 0.53%
  % Impurities RRT1.74: 0.10%
  % Impurities Total: 3.31%
[2]; Illumination, opened, 0 d
  % Impurities RRT0.46: <0.05%
  % Impurities RRT0.89: 0.08%
  % Impurities RRT1.16: 0.88%
  % Impurities RRT1.20: 0.09%
  % Impurities RRT1.29: 0.14%
  % Impurities RRT1.33: 0.10%
  % Impurities RRT1.37: 0.07%
  % Impurities RRT1.41: <0.05%
  % Impurities RRT1.73: <0.05%
  % Impurities RRT1.74: 0.05%
  % Impurities Total: 1.41%
[2]; Illumination, opened, 10 d
  % Impurities RRT0.46: 0.06%
  % Impurities RRT0.89: 0.17%
  % Impurities RRT1.16: 0.91%
  % Impurities RRT1.20: 0.08%
  % Impurities RRT1.29: 0.20%
  % Impurities RRT1.33: 0.09%
  % Impurities RRT1.37: 0.07%
  % Impurities RRT1.41: <0.05%
  % Impurities RRT1.73: 0.05%
  % Impurities RRT1.74: 0.07%
  % Impurities Total: 1.70%
[2]; acceleration 40° C./75% RH, opened
  Change of relevant substance (in words): increased significantly at RRT0.46, RRT1.16, RRT1.63 and RRT1.73, and increased slightly at RRT1.41 and RRT1.43
[2]; compatibility test of raw and auxiliary materials
  Stability of API (summary): unstable under the conditions of high humidity, illumination and acceleration
[2]; high humidity 92.5% RH, opened
  Change of relevant substance (in words): increased significantly at RRT0.46, RRT1.16, RRT1.64 and RRT1.73, and increased slightly at RRT1.41 and RRT1.74
[2]; illumination, opened
  Change of relevant substance (in words): increased slightly at RRT 0.89 and RRT 1.29
